{"source": "patent US20070191288A1", "about": "“Treatments for Benign Tumors, Cancers, Neoplasias, and/or Other Inflammatory Disorders or Diseases” (priority 2002, published 2007)", "key": {"[1]": {"system": "simple and complex partial seizures and secondarily generalized seizures", "settings": "clinical trials of human epilepsy; adjunctive therapy or monotherapy; cited from earlier work"}, "lipoma": {"system": "lipoma", "assay": "Effects of topiramate on lipoma in a dog", "format": "in vivo", "settings": "12-year-old female German Shorthaired Pointer (30.8 kg), large lipoma on right rib cage; topiramate 25 mg/day once per day, 59 days versus 24 days", "description": "FIG. 1A, depicts the size of a lipoma on a dog treated with topiramate for 24 days. FIG. 1B illustrates the reduction in lipoma size on the dog after topiramate had been administered for 59 days (25 mg/day administered once per day)."}}}
{"smiles": "CC1(C)O[C@@H]2[C@@H](CO[C@@]3(COS(N)(=O)=O)OC(C)(C)O[C@@H]23)O1", "note": "[topiramate, 2,3:4,5-bis-O-(1-methylethylidene)-β-D-fructopyranose sulfamate]", "values": [{"measurement": "efficacy in treating simple and complex partial seizures and secondarily generalized seizures", "setting": "[1]", "value": "effective"}, {"measurement": "reduction in lipoma size/mass", "setting": "lipoma", "value": "shrunk considerably"}]}
